Measured values as given in US20030050233A1, “Peptide combination for the treatment of cancer” (DABUR ONCOLOGY PLC, priority 2001, published 2003).
Where a SMILES comes first, the peptide text is derived from it. [ ]: non-standard residue; d: D form. The star is where a group is joined. Ac5c = NC1(C(=O)O)CCCC1; Aib = CC(C)(N)C(=O)O; Butyryl = CCCC(=O)*

Experiments:
Format in all cases: cell-based
[1] = tested on: cAMP in breast cancer cells (MF7); test: cAMP levels by enzyme linked sandwich immunosorbent assay; settings: 30 minutes, final peptide concentration 10^-9 M, Forskolin 1 uM
Description: Enzyme linked sandwich immunosorbent assay was carried out on breast cancer cells (MF7) to study the modulation in levels of cAMP upon treatment with the peptides and their combinations. The cells were cultured in sterile 6 well plates at a density of 0.5×10^6/well in DMEM supplemented with 10% FCS, and allowed to adhere overnight. The medium was changed to DMEM and the cells were treated with appropriate concentrations of the peptide and its combinations, as shown in Table-IV, for 30 minutes, such that in each case the final peptide concentration was 10^−9M.
The cells were coincubated with Forskolin at a concentration of 1 uM. The cells were scraped using a cell scraper and pelleted. The cell pellet was suspended in appropriate resuspension buffer (50 mM Tris, containing EDTA, 0.2 mM phenyl methyl sulfonyl fluoride (PMSF), 1 ug/ml pepstatin and 0.5 ug/ml leupeptin adjusted to pH 7.4). The cell extracts were transferred to microcentrifuge tubes and centrifuged for 5 minutes at 10000×g. cAMP standards ranging in concentrations from 200 units/ml to 0 units/ml were prepared immediately prior to the start of the assay. Fluorescein isothiocyanate (FITC) conjugated monoclonal antibody directed to cAMP was added to microtitre wells precoated with primary monoclonal antibody against cAMP. 50 ul of sample lysates, and cAMP standards were added in duplicates in the microtitre wells containing both the monoclonals to cAMP. The wells were incubated at room temperature for 2 hours. The microtitre wells were washed thrice with appropriate wash buffer (PBS 50 mM, with Tween 0.5%) and the appropriate dilution of anti FITC horse radish peroxidase conjugate was added and incubated for 30 minutes. The microtitre wells were washed thrice with the wash buffer and subsequently with distilled water. Tetra-methylbenzidine was added to each well and incubated in dark for 30 minutes at room temperature. The absorbance was measured in each well at dual wavelength of 450/595 nm within 30 minutes of the addition of stop solution and the amount of cAMP present in the cell samples calculated.

[2] = tested on: tyrosine phosphatase in pancreatic cancer cells (MiaPaCa2); test: Tyrosine phosphatase induction, colorimetric; settings: 30 minutes, final peptide concentration 10^-9 M
Description: The quantitation of tyrosine phosphatase was carried out colorimetrically by using their synthetic biotin labeled tyrosine phosphorylated peptide substrates. The enzyme reaction was quenched by the addition of a specific inhibitor, and the phosphorylated and dephosphorylated substrate is immobilized by binding to the streptavidin coated microtitre plate. The fraction of the unmetabolized substrate is determined by its anti phospho tyrosine antibody directly conjugated to peroxidase.
The cells were cultured in sterile 6 well plates at a density of 0.5×10^6/ well in DMEM supplemented with 10% FCS, and allowed to adhere overnight. The medium was changed to DMEM. The cells were treated with appropriate concentrations peptide and their combinations shown in Table VI, for 30 minutes, such that in each case the final peptide concentration was 10^−9M.
The cells were lysed in appropriate lysis buffer (50 mM Tris, containing 0.2 mM PMSF, 1 ug/ml pepstatin and 0.5 ug/ml leupeptin adjusted to pH 7.4). The cell extracts were transferred to microcentrifuge tubes and centrifuged for 5 minutes at 10000×g.
The quantitation of phosphatase enzyme activity was performed with 30 ul of specific substrates and the reaction was quenched with the addition of 100 uM sodium orthvanadate. […] After 3 washings, 100 ul of the substrate POD was added to the wells, and the absorbance was read at 405 nm.

[3] = tested on: Caspase-3 in PA-1 (Ovary) cells; test: Caspase-3 induction, colorimetric DEVD-pNA, PA-1; settings: 6 hours, each peptide 10^-8 M
Description: PA-1 (Ovary) cells were cultured in 25 cm^2 tissue culture flasks at 37° C. in a humidified incubator containing 5% CO2. When cultures reached pre-confluence individual peptides of the combination and different combinations of the peptides as shown in Table VII were added to different flasks such that the final concentration of each peptide in the flask was 10^−8 M. The untreated flasks served as controls. The cells were incubated with drug for 6 hours.
After 6 hours of incubation cells were collected by trypsin treatment followed by centrifugation at 2000 r.p.m. for 10 minutes. The supernatant was gently removed and discarded and Lysis Buffer was added to the cell pellet (25 ul of lysis buffer per 1×10^4 cells I a 15 ml conical tube) and incubated on ice for 10 minutes and centrifuged at 10,000-×g for 1 minute. 50 ul of supernatant(cell lysate) was transferred to the wells of a 96-well plate. 2×Reaction buffer was prepared by adding 10 ul of fresh DTT stock per 1 ml of 2×Reaction Buffer. […] Following incubation the plate was read on a microplate reader at 405 nm-wavelength light the level of caspase enzymatic activity in the cell lysate was directly proportional to the color reaction. The induction of caspase activity by the subcombinations was calculated as a percentage of control using the formula [(Sample OD/Control OD)−1]*100.

[4] = tested on: VEGF secreted by human breast adenocarcinoma cells (MDA.MB.453); test: VEGF secretion ELISA; settings: 4 hours, each peptide 10^-8 M
Description: Human breast adenocarcinoma cells (MDA.MB.453) were plated at the density of 8-10×10^5 cells per 2 ml in a six well plate. After an overnight incubation of cells at 37° C., individual peptides and different combinations of the peptides as shown in Table VIII were added to different wells such that the final concentration of each peptide was 10^−8 M. The untreated wells served as controls. The plates were incubated for 4 hours at 37° C. The medium was collected from all the wells (control and treated) and spun down at 2000 r.p.m to remove the cellular material. The supernatant was collected and used for ELISA (Quantikine human VEGF, R&D Systems). The assay employs the quantitative sandwich enzyme immunoassay technique. A monoclonal antibody specific for VEGF has been pre-coated onto a microplate. Standards and samples were pipeted into the wells and VEGF present was bound by the immobilized antibody. After washing away the unbound substances, an enzyme-linked polyclonal antibody specific for VEGF was added to the wells. Following a wash to remove any unbound antibody-enzyme reagent, a substrate solution was added to the wells and color developed in proportion to the amount of VEGF bound in the initial step. The optical density of each well was determined within 30 minutes using a microplate reader set to 450 nm and reference wavelength at 540 nm.

SMILES	Camp (% of Control) [1] [%]	% Induction of Tyrosine phosphatase [2] [%]	% INDUCTION of Caspase-3 [3] [%]	% INHIBITION of VEGF secretion [4] [%]
CSCC[C@H](NC(=O)[C@@H](N)CC(C)C)C(=O)N[C@@H](Cc1ccc(O)cc1)C(=O)N1CCC[C@H]1C(=O)N[C@H](C(=O)N[C@@H](Cc1ccc(O)cc1)C(=O)N[C@@H](CC(C)C)C(=O)N[C@@H](CCCCN)C(=O)O)[C@@H](C)O [SEQ ID NO:1, Leu-Met-Tyr-Pro-Thr-Tyr-Leu-Lys-OH] (H-LMYPTYLK-OH; N-terminus assumed)	30	–	–	–
CCCC(=O)N[C@H](Cc1ccccc1)C(=O)N[C@@H](CCC(N)=O)C(=O)N[C@@H](Cc1c[nH]c2ccccc12)C(=O)N[C@@H](C)C(=O)N[C@H](C(=O)NC(C)(C)C(=O)N[C@@H](Cc1c[nH]cn1)C(=O)N[C@@H](CC(C)C)C(N)=O)C(C)C [SEQ ID NO:2, Butanoyl-D-Phe-Gln-Trp-Ala-Val-Aib-His-Leu-NH2] (Butyryl-[dF]QWAV[Aib]HL-NH2)	18	–	–	–
CC(C)C[C@H](NC(=O)[C@@H](Cc1c[nH]c2ccccc12)NC(=O)[C@H](Cc1ccccc1)NC(=O)[C@@H](Cc1c[nH]c2ccccc12)NC(=O)[C@H](CCC(N)=O)NC(=O)[C@@H](Cc1ccccc1)NC(=O)[C@@H]1CCCN1C(=O)[C@H](CCCCN)NC(=O)[C@@H]1CCCN1C(=O)[C@H](N)CCCNC(=N)N)C(=O)NC1(C(N)=O)CCCC1 [SEQ ID NO:3, D-Arg-Pro-Lys-Pro-D-Phe-Gln-D-Trp-Phe-D-Trp-Leu-Ac5c-NH2] (H-[dR]PKP[dF]Q[dW]F[dW]L[Ac5c]-NH2; N-terminus assumed)	14	12	19.5	17.5 ± 1.9
C[C@@H](O)[C@H](NC(=O)[C@H]1NC(=O)C2(CCCC2)NC(=O)[C@H](CCCN)NC(=O)[C@@H](Cc2c[nH]c3ccccc23)NC(=O)[C@H](Cc2ccc(O)cc2)NC(=O)[C@@H](NC(=O)[C@H](N)Cc2ccccc2)CSSC1(C)C)C(N)=O [SEQ ID NO:4, D-Phe-Cys-Tyr-D-Trp-Om-Ac5c -Pen-Thr-NH2]	15	10	12.4	12.4 ± 2.3
